Assay results as given in patent publication US10829438B2, “Neprilysin inhibitors” (THERAVANCE BIOPHARMA R&D IP, LLC, priority 2012, dated 2020).
Like-named read-outs stand apart in the source and are kept apart here.

Target: human NEP (Homo sapiens (Human), UniProt P08473)
Experiment: In vitro enzyme inhibition assay at human NEP (fluorogenic peptide substrate)
Type: biochemical
Procedure: In Vitro Assays for the Quantitation of Inhibitor Potencies (IC50) at Human and Rat NEP, and Human ACE
The inhibitory activities of compounds at human and rat neprilysin (EC 3.4.24.11; NEP) and human angiotensin converting enzyme (ACE) were determined using in vitro assays as described below.
Recombinant human NEP and recombinant human ACE were obtained commercially (R&D Systems, Minneapolis, Minn., catalog numbers 1182-ZN and 929-ZN, respectively). The fluorogenic peptide substrate Mca-D-Arg-Arg-Leu-Dap-(Dnp)-OH (Medeiros et al. (1997) Braz. J. Med. Biol. Res. 30:1157-62; Anaspec, San Jose, Calif.) and Abz-Phe-Arg-Lys(Dnp)-Pro-OH (Araujo et al. (2000) Biochemistry 39:8519-8525; Bachem, Torrance, Calif.) were used in the NEP and ACE assays respectively.
The assays were performed in 384-well white opaque plates at 37° C. using the fluorogenic peptide substrates at a concentration of 10 μM in Assay Buffer (NEP: 50 mM HEPES, pH 7.5, 100 mM NaCl, 0.01% polyethylene glycol sorbitan monolaurate (Tween-20), 10 μM ZnSO4; ACE: 50 mM HEPES, pH 7.5, 100 mM NaCl, 0.01% Tween-20, 1 μM ZnSO4).
Test compounds were assayed over the range of concentrations from […] to 20 μM. Test compounds were added to the enzymes and incubated for 30 minute at 37° C. prior to initiating the reaction by the addition of substrate. Reactions were terminated after 20 minutes of incubation at 37° C. by the addition of glacial acetic acid to a final concentration of 3.6% (v/v).
Plates were read on a fluorometer with excitation and emission wavelengths set to 320 nm and 405 nm, respectively. Inhibition constants were obtained by nonlinear regression of the data using the equation (GraphPad Software, Inc., San Diego, Calif.): v=v0/[1+(I/K′)] where v is the reaction rate, v0 is the uninhibited reaction rate, I is the inhibitor concentration and K′ is the apparent inhibition constant.

[1] = recombinant human NEP, 30 minute pre-incubation at 37° C., fluorogenic substrate 10 μM, read-out: pKi value at human NEP (converted)
[2] = recombinant human NEP, 30 minute pre-incubation at 37° C., fluorogenic substrate 10 μM

Chain of human NEP (P08473 52-750): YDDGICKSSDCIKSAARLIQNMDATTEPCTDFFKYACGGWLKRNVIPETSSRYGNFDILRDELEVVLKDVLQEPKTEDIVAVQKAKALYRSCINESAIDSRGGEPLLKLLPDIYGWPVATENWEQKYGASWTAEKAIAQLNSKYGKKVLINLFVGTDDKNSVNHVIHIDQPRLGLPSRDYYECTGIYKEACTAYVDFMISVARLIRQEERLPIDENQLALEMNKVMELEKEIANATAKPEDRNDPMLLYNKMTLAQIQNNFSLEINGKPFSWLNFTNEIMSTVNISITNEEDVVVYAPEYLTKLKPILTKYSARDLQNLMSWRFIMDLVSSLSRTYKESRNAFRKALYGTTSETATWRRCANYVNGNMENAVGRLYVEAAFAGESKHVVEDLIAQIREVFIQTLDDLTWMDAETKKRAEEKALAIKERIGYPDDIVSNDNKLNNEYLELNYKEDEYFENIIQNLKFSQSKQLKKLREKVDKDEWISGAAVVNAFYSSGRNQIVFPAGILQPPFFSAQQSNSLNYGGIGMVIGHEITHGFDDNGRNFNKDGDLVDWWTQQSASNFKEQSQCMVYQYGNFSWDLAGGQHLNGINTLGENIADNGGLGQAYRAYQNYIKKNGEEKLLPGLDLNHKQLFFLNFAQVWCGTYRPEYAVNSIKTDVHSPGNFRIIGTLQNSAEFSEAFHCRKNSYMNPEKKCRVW

Compound	Ki [1] [nM]	also measured
CCCC(=O)OCOn1nnc2ccc(C(=O)N[C@H](Cc3ccc(-c4cccc(Cl)c4)cc3)C[C@@H](O)C(=O)O)cc21 [Example 1M, (2R,4R)-4-[(3-Butyryloxymethoxy-3H-benzotriazole-5-carbonyl)amino]-5-(3′-chlorobiphenyl-4-yl)-2-hydroxypentanoic Acid]	1.26 to 10	
O=C(N[C@H](Cc1ccc(-c2cccc(Cl)c2)cc1)C[C@@H](O)C(=O)O)c1ccc2nnn(O)c2c1 [Example 1A, (2R,4R)-5-(3′-Chlorobiphenyl-4-yl)-2-hydroxy-4-[(3-hydroxy-3H-benzotriazole-5-carbonyl)amino]pentanoic Acid]	≤ 1	
CC(C)[C@@H](N)C(=O)OCOn1nnc2ccc(C(=O)N[C@H](Cc3ccc(-c4cccc(Cl)c4)cc3)C[C@@H](O)C(=O)O)cc21 [Example 1L, (2R,4R)-4-{[3-((R)-2-Amino-3-methylbutyryloxymethoxy)-3H-benzotriazole-5-carbonyl]amino}-5-(3′-chlorobiphenyl-4-yl)-2-hydroxy-pentanoic Acid]		pKi value at human NEP [2]: ≥9.0
O=C(N[C@H](Cc1ccc(-c2cccc(Cl)c2)cc1)C[C@@H](O)C(=O)O)c1cc(-c2ccccc2F)no1 [Example 6A, (2R,4R)-5-(3′-Chlorobiphenyl-4-yl)-4-{[3-(2-fluorophenyl)isoxazole-5-carbonyl]amino}-2-hydroxypentanoic Acid]		pKi value at human NEP [2]: ≥9.0
O=C(N[C@H](Cc1ccc(-c2cccc(Cl)c2)cc1)C[C@@H](O)C(=O)O)c1ccc2nnn(OCc3ccccc3)c2c1 [Example 1I, (2R,4R)-4-[(3-Benzyloxy-3H-benzotriazole-5-carbonyl)amino]-5-(3′-chlorobiphenyl-4-yl)-2-hydroxypentanoic Acid]		Ki: 12.6 to 100 nM
CC(=O)OCOn1nnc2ccc(C(=O)N[C@H](Cc3ccc(-c4cccc(Cl)c4)cc3)C[C@@H](O)C(=O)O)cc21 [Example 1G, (2R,4R)-4-[(3-Acetoxymethoxy-3H-benzotriazole-5-carbonyl)amino]-5-(3′-chlorobiphenyl-4-yl)-2-hydroxypentanoic Acid]		pKi value at human NEP [2]: ≥9.0
CC(=O)c1cc(C(=O)N[C@H](Cc2ccc(-c3cccc(Cl)c3)cc2)C[C@@H](O)C(=O)O)n[nH]1 [Example 5B, (2R,4R)-4-[(5-Acetyl-1H-pyrazole-3-carbonyl)amino]-5-(3′-chlorobiphenyl-4-l)-2-hydroxypentanoic Acid]	≤ 1	

More lines, main results first:

Ki [1] [nM]	Compound	also measured
≤ 1	O=C(N[C@H](Cc1ccc(-c2cc(Cl)ccc2F)cc1)C[C@@H](O)C(=O)O)c1cn(O)nn1 [Example 8A, (2R,4R)-5-(5′-Chloro-2′-fluorobiphenyl-4-yl)-2-hydroxy-4-[(1-hydroxy-1H-[1,2,3]triazole-4-carbonyl)amino]pentanoic Acid]	
≤ 1	Cn1nc(C(=O)N[C@H](Cc2ccc(-c3cccc(Cl)c3)cc2)C[C@@H](O)C(=O)O)cc1O [Example 2A, (2R,4R)-5-(3′-Chlorobiphenyl-4-yl)-2-hydroxy-4-[(5-hydroxy-1-methyl-1H-pyrazole-3-carbonyl)amino]pentanoic Acid]	
≤ 1	O=C(N[C@H](Cc1ccc(-c2cccc(Cl)c2)cc1)C[C@@H](O)C(=O)O)c1cc(O)n(-c2ccccn2)n1 [Example 3A, (2R,4R)-5-(3′-Chlorobiphenyl-4-yl)-2-hydroxy-4-[(5-hydroxy-1-pyridin-2-yl-1H-pyrazole-3-carbonyl)amino]pentanoic Acid]	
≤ 1	COc1cc(C(=O)N[C@H](Cc2ccc(-c3cccc(Cl)c3)cc2)C[C@@H](O)C(=O)O)on1 [Example 7A, (2R,4R)-5-(3′-Chlorobiphenyl-4-yl)-2-hydroxy-4-[(3-methoxyisoxazole-5-carbonyl)amino]pentanoic Acid]	
≤ 1	CC(=O)c1cc(C(=O)N[C@H](Cc2ccc(-c3cc(Cl)ccc3F)cc2)C[C@@H](O)C(=O)O)n[nH]1 [Example 4B, (2R,4R)-4-[(5-Acetyl-1H-pyrazole-3-carbonyl)amino]-5-(5′-chloro-2′-fluorobiphenyl-4-yl)-2-hydroxypentanoic Acid]	
≤ 1	CC(=O)c1cc(C(=O)N[C@H](Cc2ccc(-c3ccccc3)cc2)C[C@@H](O)C(=O)O)[nH]n1 [formula X′, (2R,4R)-4-[(5-acetyl-2H-pyrazole-3-carbonyl)amino]-5-biphenyl-4-yl-2-hydroxypentanoic acid]	
≤ 1	O=C(N[C@H](Cc1ccc(-c2cccc(Cl)c2)cc1)C[C@@H](O)C(=O)O)c1nn(-c2ccccc2)c(=O)[nH]1 [Example 9A, (2R,4R)-5-(3′-Chlorobiphenyl-4-yl)-2-hydroxy-4-[(5-oxo-1-phenyl-4,5-dihydro-1H-[1,2,4]triazole-3-carbonyl)amino]pentanoic Acid]	
